This note sets out measurements from EP4741383A1, “COMPOUND AND USE THEREOF AS ANTI-CANCER DRUG” (Tyligand Bioscience (Shanghai) Limited, priority 2023, dated 2025).

What all share (format): biochemical
The target of one experiment is T1, PRL2 (Homo sapiens, UniProt Q12974).
T1 construct: made in house; host or cells: E. coli
T1 sequence (Q12974 1-167): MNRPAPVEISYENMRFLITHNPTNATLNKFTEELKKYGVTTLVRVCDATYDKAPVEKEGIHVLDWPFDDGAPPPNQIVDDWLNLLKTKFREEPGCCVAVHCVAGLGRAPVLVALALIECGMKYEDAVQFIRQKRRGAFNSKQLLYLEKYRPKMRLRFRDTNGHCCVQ
The experiment in a line: Tyrosine phosphatase selectivity (pNPP substrate), PRL2. The protocol: (§1) This experiment evaluated the selectivity of the disclosed compounds against tyrosine phosphatases, including SHP1, HePTP, Laforin, LMWPTP, LYP, PTP1B, PRL2, SSU72, VHR, FAP1, STEP, CDC14A, CD45, MEG2, and PP5, all expressed and purified from E. coli.
(§2) Phosphatase activity was measured using p-nitrophenyl phosphate (pNPP) (Fisher Scientific) as the substrate in 50 mM 3,3-dimethylglutaric acid buffer (pH 7.0, containing 1 mM EDTA), with ionic strength adjusted to 0.15 M with NaCl. […] After 10-60 minutes, the reaction was quenched by adding 20 µL of 5 N NaOH. Wells without enzyme were used as controls for correction. The amount of the product, p-nitrophenol, was determined by measuring the absorbance at 405 nm using a Spectra MAX340 microplate spectrophotometer (Molecular Devices), with a molar extinction coefficient of 18000 M^-1cm^-1.
(§3) Data were analyzed using GraphPad Prism software. Dose-response curves were obtained by fitting data using the nonlinear S-curve regression Dose-response-inhibition equation, and IC50 values were calculated.

Another experiment deals with T2, SSU72 (Homo sapiens, UniProt Q9NP77).
T2 construct: made in house; host or cells: E. coli
T2 sequence (Q9NP77 1-194): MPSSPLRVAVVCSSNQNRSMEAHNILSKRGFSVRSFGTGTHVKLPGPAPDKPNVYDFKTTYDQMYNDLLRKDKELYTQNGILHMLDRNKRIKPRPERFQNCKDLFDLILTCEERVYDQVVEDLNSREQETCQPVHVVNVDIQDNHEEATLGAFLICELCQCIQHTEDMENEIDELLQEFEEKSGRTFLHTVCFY
The experiment in a line: Tyrosine phosphatase selectivity (pNPP substrate), SSU72. The method, then: as §1, §2, §3

Another experiment deals with T3, PP5 (Homo sapiens, UniProt P53041).
T3 construct: made in house; host or cells: E. coli
T3 sequence (P53041 1-499): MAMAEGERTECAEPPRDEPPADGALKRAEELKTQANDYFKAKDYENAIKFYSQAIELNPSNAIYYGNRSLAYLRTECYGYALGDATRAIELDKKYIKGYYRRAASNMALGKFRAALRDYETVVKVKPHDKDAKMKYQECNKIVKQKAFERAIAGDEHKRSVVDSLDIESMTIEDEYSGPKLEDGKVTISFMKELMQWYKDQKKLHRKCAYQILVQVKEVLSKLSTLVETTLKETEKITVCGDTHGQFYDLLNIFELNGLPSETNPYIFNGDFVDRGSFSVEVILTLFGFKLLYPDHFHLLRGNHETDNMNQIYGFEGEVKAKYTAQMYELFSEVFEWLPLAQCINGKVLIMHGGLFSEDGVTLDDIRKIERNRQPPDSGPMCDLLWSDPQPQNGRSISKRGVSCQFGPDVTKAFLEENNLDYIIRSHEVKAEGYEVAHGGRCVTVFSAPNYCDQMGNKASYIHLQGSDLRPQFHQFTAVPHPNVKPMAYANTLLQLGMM
Nature of the experiment: Tyrosine phosphatase selectivity (pNPP substrate), PP5. The method, then:
as §1, §2, §3

A further experiment addresses T4, CD45 (Homo sapiens, UniProt P08575).
T4 construct: made in house; host or cells: E. coli
T4 sequence (P08575 26-1306): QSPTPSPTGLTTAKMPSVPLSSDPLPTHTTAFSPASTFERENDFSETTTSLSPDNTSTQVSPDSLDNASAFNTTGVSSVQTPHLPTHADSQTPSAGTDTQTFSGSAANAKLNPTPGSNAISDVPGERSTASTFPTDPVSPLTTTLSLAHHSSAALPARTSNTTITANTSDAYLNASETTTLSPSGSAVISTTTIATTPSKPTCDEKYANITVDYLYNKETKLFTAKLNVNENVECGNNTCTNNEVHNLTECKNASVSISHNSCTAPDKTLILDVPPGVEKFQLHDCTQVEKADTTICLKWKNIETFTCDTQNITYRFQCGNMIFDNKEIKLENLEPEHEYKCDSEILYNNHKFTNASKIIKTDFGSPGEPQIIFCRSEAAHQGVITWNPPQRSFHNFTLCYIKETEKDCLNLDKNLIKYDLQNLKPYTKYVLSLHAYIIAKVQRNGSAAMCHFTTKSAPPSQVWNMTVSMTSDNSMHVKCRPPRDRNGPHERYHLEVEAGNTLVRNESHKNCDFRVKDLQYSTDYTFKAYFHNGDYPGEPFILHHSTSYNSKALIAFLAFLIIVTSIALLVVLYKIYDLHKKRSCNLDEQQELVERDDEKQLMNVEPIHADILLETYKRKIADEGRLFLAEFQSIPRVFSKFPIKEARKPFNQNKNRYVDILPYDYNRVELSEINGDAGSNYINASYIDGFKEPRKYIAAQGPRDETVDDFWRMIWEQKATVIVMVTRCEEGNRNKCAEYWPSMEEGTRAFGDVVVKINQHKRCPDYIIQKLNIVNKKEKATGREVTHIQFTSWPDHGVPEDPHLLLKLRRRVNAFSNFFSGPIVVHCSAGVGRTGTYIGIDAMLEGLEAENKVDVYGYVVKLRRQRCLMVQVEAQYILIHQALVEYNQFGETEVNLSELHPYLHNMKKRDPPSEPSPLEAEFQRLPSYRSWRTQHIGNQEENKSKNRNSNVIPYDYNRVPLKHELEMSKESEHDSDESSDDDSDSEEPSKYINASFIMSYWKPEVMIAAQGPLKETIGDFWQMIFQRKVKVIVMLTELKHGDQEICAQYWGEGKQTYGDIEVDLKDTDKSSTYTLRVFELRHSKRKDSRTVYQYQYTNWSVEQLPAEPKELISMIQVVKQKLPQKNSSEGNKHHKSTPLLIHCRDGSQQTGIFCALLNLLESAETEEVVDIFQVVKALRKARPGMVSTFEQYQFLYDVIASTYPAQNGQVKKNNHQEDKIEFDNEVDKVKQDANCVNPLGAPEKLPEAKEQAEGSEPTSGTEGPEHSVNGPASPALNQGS
Nature of the experiment: Tyrosine phosphatase selectivity (pNPP substrate), CD45. The method, then:
as §1, §2, §3

SMILES strings stand for the structures. pIC50: −log10 of the molar value. Where only a bound is given, the exact number is not on record here.

As usually defined, the pIC50 is the negative decadic logarithm of the IC50, by convention in mol/L. A lower pIC50 goes with a high IC50. Consider `O=C(Nc1ccc(-c2ccsc2)cc1)C(=O)Nc1ccc(-c2cc3ccc(-c4nnn[nH]4)nc3n2C2CCC2)cc1` [Example 129], for which the pIC50 at PRL2 (PRL2, pNPP substrate) was below 4.30; against SSU72 (SSU72, pNPP substrate) it was 4.45; against PP5 (PP5, pNPP substrate), below 4.30; against CD45 (CD45, pNPP substrate), 4.38. Moreover, on PRL2 (selectivity ratio PRL2 over SHP2), the “IC50PTP/IC50SHP2 PRL2” value worked out at 847.5. Besides, the “IC50PTP/IC50SHP2 SSU72” value at SSU72 (selectivity ratio SSU72 over SHP2) amounted to 606.8. At PP5 (selectivity ratio PP5 over SHP2), the “IC50PTP/IC50SHP2 PP5” value was 847.5. On CD45 (selectivity ratio CD45 over SHP2), the “IC50PTP/IC50SHP2 CD45” value came out at 703.4.
